Type in all cases: functional, cell membranes, Membrane vesicle
Series [1] has as its target T1, ATP-binding cassette sub-family C member 2 (Rattus norvegicus, UniProt Q63120). Description: TP_TRANSPORTER: inhibition of E217betaG uptake (E217betaG: 0.055 uM) in membrane vesicles from Mrp2-expressing Sf9 cells.
The target of series [2] is T1, ATP-binding cassette sub-family C member 2. Description: TP_TRANSPORTER: inhibition of DNP-SG uptake (DNP-SG: 0.05 uM) in membrane vesicles from Mrp2-expressing Sf9 cells.
Substrate in series [3]: C[C@]12CC[C@@H]3c4ccc(O)cc4CC[C@H]3[C@@H]1CC[C@@H]2O[C@@H]1O[C@H](C(=O)O)[C@@H](O)[C@H](O)[C@H]1O
The series is described as follows: TP_TRANSPORTER: uptake in membrane vesicles from Mrp2-expressing Sf9 cells.

A word on the IC50: it is the concentration that inhibits the measured activity by half. Read a low IC50 as greater potency in that assay. In series [1], `N[C@@H](CCC(=O)N[C@H](CSc1ccc([N+](=O)[O-])cc1[N+](=O)[O-])C(=O)NCC(=O)O)C(=O)O` came in with a 50% inhibitory concentration (IC50) of 19.3 µM.

Turning to `C[C@]12CC[C@@H]3c4ccc(O)cc4CC[C@H]3[C@@H]1CC[C@@H]2O[C@@H]1O[C@H](C(=O)O)[C@@H](O)[C@H](O)[C@H]1O` [ESTRADIOL 17B GLUCURONIDE], the half-inhibitory concentration (IC50) in series [2] was found to be 13.3 µM.

As for `CCCCC/C=C\C\C=C/C=C/C=C/[C@@H](SC[C@@H](NC(=O)CC[C@H](N)C(=O)O)C(=O)NCC(=O)O)[C@@H](O)CCCC(=O)O` [LEUKOTRIEN C4], the IC50 in series [1] was 0.65 µM.

`CCCCC/C=C\C\C=C/C=C/C=C/[C@@H](SC[C@H](N)C(=O)O)[C@@H](O)CCCC(=O)O` [LEUKOTRIEN E4] showed an IC50 in series [1] of 9.83 µM.

In series [1], `CCCCC/C=C\C\C=C/C=C/C=C/[C@@H](SC[C@H](NC(=O)CC[C@@H](N)C(=O)O)C(=O)O)[C@@H](O)CCCC(=O)O` [LEUKOTRIEN F4] yielded an IC50 of 10 µM.

As to `CCCCC/C=C\C\C=C/C=C/C=C/[C@@H](SC[C@H](N)C(=O)NCC(=O)O)[C@@H](O)CCCC(=O)O` [LEUKOTRIENE D4], the IC50 in series [1] was determined as 5.48 µM.

In the case of `CN(C)C(=O)CCSC(SCCC(=O)O)c1cccc(/C=C/c2ccc3ccc(Cl)cc3n2)c1` (stereo not drawn) [MK-571], the IC50 in series [1] is 2.62 µM.

B1: ATP-binding cassette sub-family C member 2 (Rattus norvegicus) (protein)
chain: MDKFCNSTFWDLSLLESPEADLPLCFEQTVLVWIPLGFLWLLAPWQLYSVYRSRTKRSSITKFYLAKQVFVVFLLILAAIDLSLALTEDTGQATVPPVRYTNPILYLCTWLLVLAVQHSRQWCVRKNSWFLSLFWILSVLCGVFQFQTLIRALLKDSKSNMAYSYLFFVSYGFQIVLLILTAFSGPSDSTQTPSVTASFLSSITFSWYDRTVLKGYKHPLTLEDVWDIDEGFKTRSVTSKFEAAMTKDLQKARQAFQRRLQKSQRKPEATLHGLNKKQSQSQDVLVLEEAKKKSEKTTKDYPKSWLIKSLFKTFHVVILKSFILKLIHDLLVFLNPQLLKLLIGFVKSSNSYVWFGYICAILMFAVTLIQSFCLQSYFQHCFVLGMCVRTTVMSSIYKKALTLSNLARKQYTIGETVNLMSVDSQKLMDATNYMQLVWSSVIQITLSIFFLWRELGPSILAGVGVMVLLIPVNGVLATKIRNIQVQNMKNKDKRLKIMNEILSGIKILKYFAWEPSFQEQVQGIRKKELKNLLRFGQLQSLLIFILQITPILVSVVTFSVYVLVDSANVLNAEKAFTSITLFNILRFPLSMLPMVTSSILQASVSVDRLERYLGGDDLDTSAIRRVSNFDKAVKFSEASFTWDPDLEATIQDVNLDIKPGQLVAVVGTVGSGKSSLVSAMLGEMENVHGHITIQGSTAYVPQQSWIQNGTIKDNILFGSEYNEKKYQQVLKACALLPDLEILPGGDMAEIGEKGINLSGGQKQRVSLARAAYQDADIYILDDPLSAVDAHVGKHIFNKVVGPNGLLAGKTRIFVTHGIHFLPQVDEIVVLGKGTILEKGSYRDLLDKKGVFARNWKTFMKHSGPEGEATVNNDSEAEDDDDGLIPTMEEIPEDAASLAMRRENSLRRTLSRSSRSSSRRGKSLKNSLKIKNVNVLKEKEKEVEGQKLIKKEFVETGKVKFSIYLKYLQAVGWWSILFIILFYGLNNVAFIGSNLWLSAWTSDSDNLNGTNNSSSHRDMRIGVFGALGLAQGICLLISTLWSIYACRNASKALHGQLLTNILRAPMRFFDTTPTGRIVNRFSGDISTVDDLLPQTLRSWMMCFFGIAGTLVMICMATPVFAIIIIPLSILYISVQVFYVATSRQLRRLDSVTKSPIYSHFSETVTGLPIIRAFEHQQRFLAWNEKQIDINQKCVFSWITSNRWLAIRLELVGNLVVFCSALLLVIYRKTLTGDVVGFVLSNALNITQTLNWLVRMTSEAETNIVAVERISEYINVENEAPWVTDKRPPADWPRHGEIQFNNYQVRYRPELDLVLKGITCNIKSGEKVGVVGRTGAGKSSLTNCLFRILESAGGQIIIDGIDVASIGLHDLRERLTIIPQDPILFSGSLRMNLDPFNKYSDEEVWRALELAHLRSFVSGLQLGLLSEVTEGGDNLSIGQRQLLCLGRAVLRKSKILVLDEATAAVDLETDSLIQTTIRKEFSQCTVITIAHRLHTIMDSDKIMVLDNGKIVEYGSPEELLSNRGSFYLMAKEAGIENVNHTEL
As a reminder, the Km is the substrate concentration at which the rate is half of its maximum. Turning to B1, the Km in series [3] amounted to 3.91 µM.

The values above are taken from ChEMBL document CHEMBL2073895, “Charged amino acids in the transmembrane domains are involved in the determination of the substrate specificity of rat Mrp2” (Mol Pharmacol, 2001).
